Test results from ChEMBL document CHEMBL4184182, “Studies on interactions of carbazole derivatives with DNA, cell image, and cytotoxicity” (Bioorg Med Chem, 2018).
Active and inactive are the calls of the source. The rule behind the calls is not given here.

Legend:
[1] = Selectivity ratio of DC50 for 26-mer duplex DNA (unknown origin) to DC50 for human telomeric G-quadruplex DNA in presence of potassium ion
[2] = tested on: Quadruplex DNA; test: Induction of conformational changes in c-Myc G-quadruplex DNA (unknown origin) at 15 uM after 5 mins by CD spectral analysis; type: nucleic-acid assay
[3] = molecular target: Quadruplex DNA; test: Displacement of thiazole orange from c-Myc G-quadruplex DNA (unknown origin) after 5 mins by fluorescence spectral analysis; type: nucleic-acid assay
[4] = tested on: dsDNA; test: Binding affinity to 26-mer duplex DNA (unknown origin) after 5 mins by UV-Visible absorbance titration method; type: nucleic-acid assay
[5] = Selectivity ratio of DC50 for 26-mer duplex DNA (unknown origin) to DC50 for c-Myc G-quadruplex DNA (unknown origin)
[6] = tested on: Calf thymus DNA; test: Binding affinity to calf thymus DNA after 5 mins by UV-Visible absorbance titration method; type: nucleic-acid assay; settings: Bos taurus
[7] = tested on: Quadruplex DNA; test: Binding affinity to human telomeric G-quadruplex DNA after 5 mins in presence of sodium ion by UV-Visible absorbance titration method; type: nucleic-acid assay
[8] = tested on: Quadruplex DNA; test: Binding affinity to c-Kit G-quadruplex DNA (unknown origin) assessed as stoichiometric ratio of compound to G-quadruplex DNA after 5 mins by Job plot analysis; type: nucleic-acid assay
[9] = Selectivity ratio of Kb for c-Kit G-quadruplex DNA (unknown origin) to Kb for calf thymus DNA
[10] = molecular target: Quadruplex DNA; test: Displacement of thiazole orange from c-Kit G-quadruplex DNA (unknown origin) after 5 mins by fluorescence spectral analysis; type: nucleic-acid assay
[11] = tested on: HepG2; test: Antiproliferative activity against human HepG2 cells after 72 hrs by MTT assay; type: functional, cell-based; settings: for IC50: HepG2, 72 h
[12] = tested on: Quadruplex DNA; test: Binding affinity to c-Kit G-quadruplex DNA (unknown origin) assessed as enhanced fluorescence ratio at 5 uM after 5 mins by fluorescence titration assay relative to control; type: nucleic-acid assay
[13] = tested on: Quadruplex DNA; test: Binding affinity to human telomeric G-quadruplex DNA assessed as stoichiometric ratio of compound to G-quadruplex DNA after 5 mins in presence of sodium ion by Job plot analysis; type: nucleic-acid assay
[14] = Selectivity ratio of DC50 for 26-mer duplex DNA (unknown origin) to DC50 for Bcl2 G-quadruplex DNA (unknown origin)
[15] = Selectivity ratio of DC50 for 26-mer duplex DNA (unknown origin) to DC50 for c-Kit G-quadruplex DNA (unknown origin)
[16] = tested on: Quadruplex DNA; test: Binding affinity to human telomeric G-quadruplex DNA after 5 mins in presence of potassium ion by UV-Visible absorbance titration method; type: nucleic-acid assay
[17] = tested on: Quadruplex DNA; test: Binding affinity to c-Myc G-quadruplex DNA (unknown origin) after 5 mins by UV-Visible absorbance titration method; type: nucleic-acid assay
[18] = molecular target: Quadruplex DNA; test: Displacement of thiazole orange from human telomeric G-quadruplex DNA after 5 mins in presence of sodium ion by fluorescence spectral analysis; type: nucleic-acid assay
[19] = Selectivity ratio of Kb for Bcl2 G-quadruplex DNA (unknown origin) to Kb for calf thymus DNA
[20] = tested on: Quadruplex DNA; test: Induction of conformational changes in human telomeric G-quadruplex DNA at 15 uM after 5 mins in presence of potassium ion by CD spectral analysis; type: nucleic-acid assay
[21] = tested on: Quadruplex DNA; test: Binding affinity to c-Kit G-quadruplex DNA (unknown origin) after 5 mins by UV-Visible absorbance titration method; type: nucleic-acid assay
[22] = tested on: Quadruplex DNA; test: Induction of conformational changes in Bcl2 G-quadruplex DNA (unknown origin) at 15 uM after 5 mins by CD spectral analysis; type: nucleic-acid assay
[23] = tested on: Quadruplex DNA; test: Binding affinity to c-Myc G-quadruplex DNA (unknown origin) assessed as emission maximum at 5 uM after 5 mins by fluorescence titration method (reference value: 559 nanometer); type: nucleic-acid assay
[24] = tested on: Quadruplex DNA; test: Induction of conformational changes in c-Kit G-quadruplex DNA (unknown origin) at 15 uM after 5 mins by CD spectral analysis; type: nucleic-acid assay
[25] = tested on: Quadruplex DNA; test: Binding affinity to c-Myc G-quadruplex DNA (unknown origin) assessed as enhanced fluorescence time at 5 uM after 5 mins by fluorescence titration assay relative to control; type: nucleic-acid assay
[26] = Selectivity ratio of Kb for human telomeric G-quadruplex DNA in presence of sodium ion to Kb for calf thymus DNA
[27] = tested on: Quadruplex DNA; test: Binding affinity to Bcl2 G-quadruplex DNA (unknown origin) assessed as stoichiometric ratio of compound to G-quadruplex DNA after 5 mins by Job plot analysis; type: nucleic-acid assay
[28] = tested on: Quadruplex DNA; test: Induction of conformational changes in human telomeric G-quadruplex DNA at 15 uM after 5 mins in presence of sodium ion by CD spectral analysis; type: nucleic-acid assay
[29] = tested on: Quadruplex DNA; test: Binding affinity to Bcl2 G-quadruplex DNA (unknown origin) after 5 mins by UV-Visible absorbance titration method; type: nucleic-acid assay
[30] = molecular target: Quadruplex DNA; test: Displacement of thiazole orange from human telomeric G-quadruplex DNA after 5 mins in presence of potassium ion by fluorescence spectral analysis; type: nucleic-acid assay
[31] = molecular target: dsDNA; test: Displacement of thiazole orange from 26-mer duplex DNA (unknown origin) after 5 mins by fluorescence spectral analysis; type: nucleic-acid assay
[32] = molecular target: Quadruplex DNA; test: Displacement of thiazole orange from Bcl2 G-quadruplex DNA (unknown origin) after 5 mins by fluorescence spectral analysis; type: nucleic-acid assay
[33] = tested on: Quadruplex DNA; test: Binding affinity to c-Kit G-quadruplex DNA (unknown origin) assessed as hyperchromicity at 15 uM after 5 mins by UV-Visible absorbance titration method; type: nucleic-acid assay
[34] = tested on: Quadruplex DNA; test: Binding affinity to c-Myc G-quadruplex DNA (unknown origin) assessed as stoichiometric ratio of compound to G-quadruplex DNA after 5 mins by Job plot analysis; type: nucleic-acid assay
[35] = tested on: Quadruplex DNA; test: Binding affinity to human telomeric G-quadruplex DNA assessed as stoichiometric ratio of compound to G-quadruplex DNA after 5 mins in presence of potassium ion by Job plot analysis; type: nucleic-acid assay
[36] = Selectivity ratio of Kb for c-Myc G-quadruplex DNA (unknown origin) to Kb for calf thymus DNA
[37] = Selectivity ratio of Kb for human telomeric G-quadruplex DNA in presence of potassium ion to Kb for calf thymus DNA
[38] = tested on: Quadruplex DNA; test: Binding affinity to human telomeric G-quadruplex DNA assessed as compound fluorescence life time at 5 uM after 5 mins in presence of potassium ion by fluorescence titration method (reference value: 0.192 nanoseconds); type: nucleic-acid assay
[39] = tested on: Quadruplex DNA; test: Binding affinity to human telomeric G-quadruplex DNA assessed as absorption maximum at 5 uM after 5 mins in presence of potassium ion by fluorescence titration method (reference value: 453 nanometer); type: nucleic-acid assay
[40] = tested on: Quadruplex DNA; test: Binding affinity to Bcl2 G-quadruplex DNA (unknown origin) assessed as hyperchromicity at 10 uM after 5 mins by UV-Visible absorbance titration method; type: nucleic-acid assay
[41] = tested on: dsDNA; test: Binding affinity to 26-mer duplex DNA (unknown origin) assessed as compound fluorescence life time at 5 uM after 5 mins by fluorescence titration method (reference value: 0.192 nanoseconds); type: nucleic-acid assay
[42] = tested on: Quadruplex DNA; test: Binding affinity to Bcl2 G-quadruplex DNA (unknown origin) assessed as compound fluorescence life time at 5 uM after 5 mins by fluorescence titration method (reference value: 0.192 nanoseconds); type: nucleic-acid assay
[43] = tested on: dsDNA; test: Binding affinity to 26-mer duplex DNA (unknown origin) assessed as hyperchromicity at 10 uM after 5 mins by UV-Visible absorbance titration method; type: nucleic-acid assay
[44] = tested on: dsDNA; test: Binding affinity to 26-mer duplex DNA (unknown origin) assessed as emission maximum at 5 uM after 5 mins by fluorescence titration method (reference value: 584 nanometer); type: nucleic-acid assay

## CCn1c2ccccc2c2cc(/C=C(\C#N)c3ccc[n+](C)c3)ccc21.[I-]
[1]
  Selectivity ratio: 1.98
[2]
  Activity: inactive
[3]
  DC50: 5.15 µM
[4]
  Kb: 2.28 ×10⁴ /M
[5]
  Selectivity ratio: 2.55
[6]
  Kb: 1 ×10⁴ /M
[7]
  Kb: 6.95 ×10⁴ /M
[8]
  Ratio: 2
[9]
  Selectivity ratio: 6.7
[10]
  DC50: 6.03 µM
[11]
  Activity: Dose-dependent effect
  IC50: 9.8 µM
[12]
  Ratio: > 6
[13]
  Ratio: 1.9
[14]
  Selectivity ratio: 1.42
[15]
  Selectivity ratio: 2.17
[16]
  Kb: 11.9 ×10⁴ /M
[17]
  Kb: 19.2 ×10⁴ /M
[18]
  DC50: 9.85 µM
[19]
  Selectivity ratio: 6.2
[20]
  Activity: inactive
[21]
  Kb: 10.7 ×10⁴ /M
[22]
  Activity: inactive
[23]
  Activity: 547 nm
[24]
  Activity: inactive
[25]
  fold change (FC): 11.2 to 20.6
[26]
  Selectivity ratio: 4.3
[27]
  Ratio: 1.6
[28]
  Activity: inactive
[29]
  Kb: 9.99 ×10⁴ /M
[30]
  DC50: 6.64 µM
[31]
  DC50: 13.1 µM
[32]
  DC50: 9.25 µM
[33]
  Activity: 39.9%
[34]
  Ratio: 2.1
[35]
  Ratio: 2.2
[36]
  Selectivity ratio: 12
[37]
  Selectivity ratio: 7.4

## CCn1c2ccccc2c2cc(/C=C/c3sc4ccccc4[n+]3CC)ccc21.[I-]
[38]
  Time: 2.09 nanoseconds
[1]
  Selectivity ratio: 2.4
[2]
  Activity: inactive
[3]
  DC50: 0.93 µM
[4]
  Kb: 3.97 ×10⁴ /M
[5]
  Selectivity ratio: 4.67
[6]
  Kb: 1.32 ×10⁴ /M
[7]
  Kb: 7.86 ×10⁴ /M
[39]
  Activity: 474 nm
[8]
  Ratio: 1.9
[9]
  Selectivity ratio: 18.1
[10]
  DC50: 2.15 µM
[11]
  Activity: Dose-dependent effect
  IC50: 2.7 µM
[40]
  Activity: 52.6%
[13]
  Ratio: 1.9
[41]
  Time: 2.69 nanoseconds
[14]
  Selectivity ratio: 5.17
[15]
  Selectivity ratio: 2.02
[42]
  Time: 2.17 nanoseconds
[16]
  Kb: 18.3 ×10⁴ /M
[17]
  Kb: 54.9 ×10⁴ /M
[18]
  DC50: 6.08 µM
[19]
  Selectivity ratio: 24.2
[20]
  Activity: inactive
[21]
  Kb: 23.9 ×10⁴ /M
[22]
  Activity: inactive
[43]
  Activity: 24.6%
[24]
  Activity: inactive
[26]
  Selectivity ratio: 6
[27]
  Ratio: 1.5
[28]
  Activity: inactive
[29]
  Kb: 32 ×10⁴ /M
[30]
  DC50: 1.81 µM
[44]
  Activity: 568 nm
[31]
  DC50: 4.34 µM
[32]
  DC50: 0.84 µM
[34]
  Ratio: 1.9
[35]
  Ratio: 2.2
[36]
  Selectivity ratio: 41.6
[37]
  Selectivity ratio: 13.9
